Results taken from article PMC7144155 (ACS Omega, 2020).
Converted amounts (≈) assume the structure as drawn. “And” between values parts separate entries of the source, which are not always exact repeats. Identical values can stand only once.

Experiments:
traumatic brain injury = settings: after traumatic brain injury; cited from earlier work
[1] = test system: formalin-injected paw model of pain; settings: coadministration 450 μg/paw; P < 0.001; cited from earlier work
[2] = molecular target: T1, human vasopressin V1A receptor (hV1AR) (Homo sapiens, UniProt P37288); assay: cell-based
T1 sequence (P37288 whole entry): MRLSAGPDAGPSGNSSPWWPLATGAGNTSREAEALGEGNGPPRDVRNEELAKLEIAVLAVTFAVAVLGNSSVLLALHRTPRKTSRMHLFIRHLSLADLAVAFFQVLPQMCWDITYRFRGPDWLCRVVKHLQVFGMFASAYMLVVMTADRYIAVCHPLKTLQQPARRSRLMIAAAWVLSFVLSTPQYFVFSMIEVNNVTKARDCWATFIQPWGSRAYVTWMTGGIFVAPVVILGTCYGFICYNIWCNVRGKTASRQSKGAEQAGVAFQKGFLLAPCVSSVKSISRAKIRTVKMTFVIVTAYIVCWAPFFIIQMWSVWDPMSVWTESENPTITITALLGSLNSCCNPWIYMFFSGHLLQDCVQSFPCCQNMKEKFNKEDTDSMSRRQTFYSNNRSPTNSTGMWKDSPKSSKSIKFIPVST

[3] = molecular target: T2, human 5-HT1A receptor (h5-HT1AR) (Homo sapiens, UniProt P08908); assay: GPCR functional assay, antagonist effect; assay type: cell-based; settings: for % inhibition: 5-HT1A (h), % inhibition of control response to 30 nM serotonin at 50 μM of anthraquinones
T2 sequence (P08908 1-422): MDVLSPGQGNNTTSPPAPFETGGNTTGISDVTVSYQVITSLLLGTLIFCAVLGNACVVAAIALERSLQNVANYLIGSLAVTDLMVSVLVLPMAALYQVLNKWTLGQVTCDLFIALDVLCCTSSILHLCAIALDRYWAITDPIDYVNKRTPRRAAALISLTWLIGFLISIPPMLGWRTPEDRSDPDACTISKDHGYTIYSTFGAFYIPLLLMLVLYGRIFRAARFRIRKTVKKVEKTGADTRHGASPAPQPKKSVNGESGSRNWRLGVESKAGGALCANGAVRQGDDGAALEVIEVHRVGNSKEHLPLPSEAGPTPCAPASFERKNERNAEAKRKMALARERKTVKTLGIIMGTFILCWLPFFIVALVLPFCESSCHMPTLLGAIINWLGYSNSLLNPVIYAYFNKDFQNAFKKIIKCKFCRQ

[4] = molecular target: T3, human dopamine D1 receptor (hD1R) (Homo sapiens, UniProt P21728); assay: GPCR functional assay, agonist effect; assay type: cell-based; settings: D1 (h); % of control agonist (dopamine) response at 50 μM of anthraquinones
T3 sequence (P21728 whole entry): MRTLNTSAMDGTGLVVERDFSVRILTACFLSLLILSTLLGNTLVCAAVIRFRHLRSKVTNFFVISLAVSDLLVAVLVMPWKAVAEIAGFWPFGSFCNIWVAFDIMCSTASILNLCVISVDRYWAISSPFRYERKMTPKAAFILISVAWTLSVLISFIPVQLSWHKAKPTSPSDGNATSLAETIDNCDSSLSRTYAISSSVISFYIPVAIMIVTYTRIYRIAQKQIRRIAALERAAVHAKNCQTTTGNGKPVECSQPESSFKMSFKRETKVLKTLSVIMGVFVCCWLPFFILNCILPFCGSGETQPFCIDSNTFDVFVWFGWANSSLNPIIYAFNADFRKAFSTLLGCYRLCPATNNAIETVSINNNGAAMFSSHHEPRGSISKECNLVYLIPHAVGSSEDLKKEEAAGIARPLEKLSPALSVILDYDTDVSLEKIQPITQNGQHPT

[5] = molecular target: T4, human dopamine D3 receptor (hD3R) (Homo sapiens, UniProt P35462); assay: GPCR functional assay, agonist effect; assay type: cell-based; settings: for % stimulation: D3 (h), % of control response to 300 nM dopamine at 50 μM of anthraquinones
T4 sequence (P35462 whole entry): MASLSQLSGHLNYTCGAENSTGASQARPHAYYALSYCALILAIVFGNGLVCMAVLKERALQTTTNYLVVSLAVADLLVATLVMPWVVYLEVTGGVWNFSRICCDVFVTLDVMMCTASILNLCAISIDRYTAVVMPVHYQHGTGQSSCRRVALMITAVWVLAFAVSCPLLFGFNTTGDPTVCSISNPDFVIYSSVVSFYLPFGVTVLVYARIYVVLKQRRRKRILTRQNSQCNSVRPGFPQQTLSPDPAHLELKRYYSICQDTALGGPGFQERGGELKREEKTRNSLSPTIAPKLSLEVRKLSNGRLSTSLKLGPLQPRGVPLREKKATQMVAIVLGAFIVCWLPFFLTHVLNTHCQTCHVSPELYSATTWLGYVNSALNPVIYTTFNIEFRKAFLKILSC

acetylcholinesterase = settings: cited from earlier work
[6] = molecular target: T2, human 5-HT1A receptor (h5-HT1AR); assay: GPCR functional assay, agonist effect; assay type: cell-based; settings: 5-HT1A (h); % of control response to serotonin (2.5 μM) at 50 μM of anthraquinones
U87MG cells = settings: 20 and 40 μM; cited from earlier work
[7] = molecular target: T4, human dopamine D3 receptor (hD3R); assay: GPCR functional assay, antagonist effect; assay type: cell-based; settings: for % inhibition: D3 (h), % inhibition of control response to 10 nM dopamine at 50 μM of anthraquinones
[8] = molecular target: T1, human vasopressin V1A receptor (hV1AR); assay: GPCR functional assay, agonist effect; assay type: cell-based; settings: for % stimulation: V1A (h), % of control response to 1 μM AVP at 50 μM of anthraquinones; for agonist response at hV1AR (in words): up to 50 μM
[9] = test system: human glioblastoma U87MG-implanted nude CG1 mice; settings: i.p. 50 mg/(kg day) for 15 days; decreasing Ki67 positive cells; cited from earlier work
[10] = molecular target: T5, human dopamine D4 receptor (hD4R) (Homo sapiens, UniProt P21917); assay: GPCR functional assay, antagonist effect; assay type: cell-based; settings: for inhibition at 50 µM: CHO
T5 sequence (P21917 1-419): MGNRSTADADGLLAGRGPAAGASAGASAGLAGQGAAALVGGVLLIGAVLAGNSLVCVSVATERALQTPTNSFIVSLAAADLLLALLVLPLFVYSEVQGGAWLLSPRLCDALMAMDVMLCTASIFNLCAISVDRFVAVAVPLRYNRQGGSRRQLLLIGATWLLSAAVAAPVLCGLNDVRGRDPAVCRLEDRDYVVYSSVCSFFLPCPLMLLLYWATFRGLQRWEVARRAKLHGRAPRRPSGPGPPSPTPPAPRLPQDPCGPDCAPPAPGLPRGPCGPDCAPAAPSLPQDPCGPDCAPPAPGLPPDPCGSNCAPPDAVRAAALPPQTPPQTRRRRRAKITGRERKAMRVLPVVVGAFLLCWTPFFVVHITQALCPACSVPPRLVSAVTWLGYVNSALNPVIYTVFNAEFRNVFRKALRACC

[11] = molecular target: T5, human dopamine D4 receptor (hD4R); assay: GPCR functional assay, agonist effect; assay type: cell-based; settings: D4 (h); % of control agonist (dopamine) response at 50 μM of anthraquinones
[12] = molecular target: T3, human dopamine D1 receptor (hD1R); assay: GPCR functional assay, antagonist effect; assay type: cell-based; settings: CHO
[13] = test system: cycloheximide-induced amnesia in rats; settings: cited from earlier work
[14] = test system: human epidermoid carcinoma A431 cell; settings: 100 μM, 4 nM (−)-epinephrine, 2 μM nicotinic acid, 8 μM histamine; cited from earlier work
[15] = test system: cerebral ischemia/reperfusion (I/R) model rats; settings: intraperitoneal injection, 25 g/(kg day); cited from earlier work
[16] = 20 and 40 mg/kg, rapid phase II metabolism to glucuronide; cited from earlier work

antagonist effect on h5-HT1AR (in words) [3] | % inhibition [3] [%] | % stimulation [4] | % stimulation [5] | % stimulation [6] | % inhibition [7] [%] | % stimulation [8] | agonist response at hV1AR (in words) [8] | inhibition at 50 µM [10] [%] | % stimulation [11] | inhibition at 50 µM [12] [%] | Compound | effect on hV1AR (in words) [2] | further results
 |  |  |  |  |  |  |  |  |  |  | COc1ccc(S(=O)(=O)N2c3ccc(Cl)cc3[C@](O)(c3ccccc3Cl)[C@@H]2C(=O)N2CCC[C@H]2C(N)=O)cc1OC [SR49059, (2S)1-{(2R,3S)-5-chloro-3-(2-chloro-phenyl)-1-(3,4-dimethoxybenzene-sulfonyl)-3-hydroxy-2,3-dihydro-1H-indole-2-carbonyl}pyrrolidine-2-carboxamide] |  | brain edema (traumatic brain injury): prevented brain edema
 |  |  |  |  |  |  |  |  |  |  | COc1ccccc1N1CCN(CC(C(=O)NC(C)(C)C)c2ccccc2)CC1 (stereo not drawn) [WAY 100 135] |  | phase 2 (long lasting) intense flinching behavior [1]: inhibited
remained ineffective | 18.4 ± 3.89 | –3.55 ± 0.64% | 75.6% and 75.60 ± 12.87% | –3.56 ± 0.21% | −10.8 ± 6.59 | –4.80 ± 0.69% | did not show any agonist response | -0.35 | 2.35 ± 2.76% | -10.2 | Cc1cc(O)c2c(c1)C(=O)c1cc(O)cc(O)c1C2=O [emodin] |  | IC50 [2]: 10.2 ± 1.97 µM; inhibition at 12.5 µM ([2]; CHO, read-out: inhibition of 10 nM AVP-induced intracellular Ca2+ concentration): > 50%; % inhibition ([2]; V1A (h), % inhibition of control response to 10 nM AVP at 50 μM of anthraquinones): 69.35 ± 1.34%; cycloheximide-induced amnesia [13]: improved cycloheximide-induced amnesia; EC50 [5]: 21.9 ± 2.66 µM; effect on agonist-induced dynamic mass redistribution signals [14]: inhibited; neurological deficit scores [15]: improved neurological deficit scores; parent form in vivo after oral administration [16]: almost undetectable
remained ineffective | 0.70 ± 4.10 | –2.10 ± 0.85% | 34.85% and 34.85 ± 0.78% | 2.45 ± 0.49% | 1.25 ± 7.42 | –3.40 ± 0.71% | did not show any agonist response | 4.5 | –38.15 ± 15.91% | 10.9 | COc1cc(O)cc2c1C(=O)c1c(O)cc(C)cc1C2=O [questin] | did not have any observable effect | hD3R agonist effect (in words) [5]: moderate hD3R agonist effect

Compound | antagonist effect on h5-HT1AR (in words) [3] | % inhibition [3] [%] | % stimulation [4] | % stimulation [5] | % stimulation [6] | % inhibition [7] [%] | % stimulation [8] | agonist response at hV1AR (in words) [8] | inhibition at 50 µM [10] [%] | % stimulation [11] | inhibition at 50 µM [12] [%] | effect on hV1AR (in words) [2] | further results
O=C1c2cccc(O)c2C(=O)c2c(O)cc(CO)cc21 [aloe-emodin] | remained ineffective | 1.55 ± 3.61 | 0.15 ± 4.45% | –57.95 ± 32.88% | 3.45 ± 0.21% | 20.60 ± 6.79 | 7.45 ± 1.20% | did not show any agonist response | 25.7 | -53.15 ± 7.00% | -47.9 | did not have any observable effect | IC50 (acetylcholinesterase activity) (acetylcholinesterase): 18.37 µg/mL (≈ 68 µM); cell cycle effect (U87MG cells): induced cell cycle arrest; hD3R antagonist effect (in words) [7]: mild hD3R antagonist effect; effect in mouse brain tumour model [9]: showed antiproliferative effect; hD4R antagonist effect (in words) [10]: mild antagonist effect
